Measured values from patent publication US20170000784A1, “Autophagy Inhibitors” (priority 2013, published 2017).

Test system: Plasmodium berghei
Experiment: In vivo compound efficacy in Plasmodium berghei
Details: mice; oral 50 mg/kg at 4, 24, 48 and 72 hours post-infection; day 4
Procedure: Mice were infected intravenously with parasitized red blood cells on day 0 (2×10^7 parasitized erythrocytes per mL). Experimental mice were treated at 4, 24, 48, and 72 hours post-infection with an oral dose of Example 7 at 50 mg/kg and were compared to an infected control group for the % reduction in parasitaemia on day 4 (96 hours post-infection) and for mean survival (monitored up to 30 days post-infection). A compound was considered curative if the animal survived to day 30 after infection with no detectable parasites.
The potent anti-malarial activity of Example 7, combined with its therapeutic window in vitro, led us to explore its activity in vivo using a murine model of malaria. Mice are infected with the murine specific Plasmodium, P. berghei, after which an antimalarial treatment regimen is given. Example 7 was given at 50 mg/kg at times 4, 24, 48, and 72 hours post-infection of mice already infected with P. berghei. The reduction in parasitemia, measured as the total blood load of the P. berghei parasite, was compared to an infected control group for the percent reduction of parasite on day 4 (96 hours post-infection). Example 7 was unexpectedly shown to be effective in reducing parasitemia by 99% compared to the infected control group after 4 days, making it an effective antimalarial in these preclinical models.

Structure (SMILES): COc1ccc2nc3cc(Cl)ccc3c(NCCCCN3CCN(C)CC3)c2c1 [Example 7, 6-Chloro-2-methoxy-N-(4-(4-methylpiperazin-1-yl)butyl)acridin-9-amine]
- reduction in parasitemia compared to the infected control group: 99%
